Source: BigSolDB 2.1

O=[N+]([O-])c1cn[nH]c1[N+](=O)[O-]
solubility (mole fraction)
Conditions | 298.15 K | 303.15 K | 308.15 K | 313.15 K | 318.15 K | 323.15 K | 328.15 K | 333.15 K | 338.15 K
in anisole | 0.043 | 0.058 | 0.0778 | 0.103 | 0.138 | 0.181 | 0.237 | 0.313 | 0.411
in benzene | 0.00171 | 0.00211 | 0.00264 | 0.00317 | 0.00389 | 0.00482 | 0.00585 | 0.00742 | 0.00936
in chlorobenzene | 0.0012 | 0.00147 | 0.0018 | 0.00218 | 0.00266 | 0.00328 | 0.00402 | 0.00494 | 0.00609
in isopropanol | 0.388 | 0.413 | 0.441 | 0.472 | 0.509 | 0.547 | 0.588 | 0.642 | 0.7
in n-butanol | 0.318 | 0.348 | 0.387 | 0.411 | 0.444 | 0.489 | 0.528 | 0.586 | 0.648
in toluene | 0.00201 | 0.0024 | 0.00291 | 0.00345 | 0.00411 | 0.00499 | 0.00601 | 0.00725 | 0.00877
